Among the data in patent US20250163104A1, “MACROCYCLIC IMMUNOMODULATORS” (priority 2021, published 2025) are IC50 values, retold here.

pIC50: −log10 of the molar value. *1 amine or outer side, *2 acyl side, *3 side chain or, on linkers, in order; H or OH if unused. Where a SMILES comes first, the peptide text is derived from it. Bridges are numbered along the chain shown (N, C = ends). [ ]: non-standard residue; d: D form. The star is where a group is joined. X5 = O=C([C@H](Cc1ccc2ncccc2c1)N[*:1])[*:2]; Bip = N[C@@H](Cc1ccc(-c2ccccc2)cc1)C(=O)O; 1Nal = N[C@@H](Cc1cccc2ccccc12)C(=O)O; 2Pal = N[C@@H](Cc1ccccn1)C(=O)O; 3Pal = N[C@@H](Cc1cccnc1)C(=O)O; 2Thi = N[C@@H](Cc1cccs1)C(=O)O; Cha = N[C@@H](CC1CCCCC1)C(=O)O; Carboxymethyl = O=C(O)C*; Orn = NCCC[C@H](N)C(=O)O; Dab = NCC[C@H](N)C(=O)O; Dap = NC[C@H](N)C(=O)O

T1 sequence (Q15116 25-288): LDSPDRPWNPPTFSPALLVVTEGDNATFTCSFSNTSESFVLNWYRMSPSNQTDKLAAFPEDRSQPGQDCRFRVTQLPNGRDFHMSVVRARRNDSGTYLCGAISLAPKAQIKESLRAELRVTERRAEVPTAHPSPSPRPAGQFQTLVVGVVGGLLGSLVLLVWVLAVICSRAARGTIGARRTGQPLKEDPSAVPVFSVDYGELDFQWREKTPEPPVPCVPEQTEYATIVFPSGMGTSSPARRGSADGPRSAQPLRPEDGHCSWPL

The test has as its target T1, human PD-1 / PD-L1-Ig binding on Jurkat cell line over-expressing human PD-1 (Jurkat-PD-1) (Homo sapiens, UniProt Q15116).
T1 construct: expressed in transfected cells; host or cells: Jurkat
Briefly: Jurkat-PD-1 Cell Binding High-Content Screening Assay (CBA). The test is classed as cell-based. The following applies: Jurkat-PD-1 cells, PE-labeled PD-L1-Ig 20 nM final; read-out: Jurkat HPD1_PDL1 IC50. A digest of the protocol: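 Cell-bound PE-labeled PD-L1-Ig (20 nM final, 1 h) measured by high-content imaging after fixation and Hoechst 33342 counterstain. Compound was applied first for 2 h at 37° C. to Jurkat cells over-expressing human PD-1 in DMEM with 10% FCS.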
As for `CC(C)C[C@H]1NC(=O)[C@H](CCCN)NC(=O)[C@H](CCC(=O)O)NC(=O)[C@H](Cc2ccc(-c3ccccc3)cc2)NC(=O)[C@H](C(C)C)NC(=O)[C@H](Cc2ccc3ncccc3c2)NC(=O)[C@H](CC(=O)O)NC(=O)[C@H](Cc2ccc(OCC(=O)O)cc2)NC(=O)[C@H](CN)NC(=O)CSC[C@@H](C(=O)N[C@@H](C)C(N)=O)NC(=O)[C@H]([C@@H](C)O)NC(=O)[C@H](C(C)C)NC(=O)[C@H](CC2CCCCC2)NC(=O)[C@H](CCN)NC1=O` [Compound 2145] ({CH2CO}-[Dap]Y(Carboxymethyl)D[X5]V[Bip]E[Orn][dL][Dab][Cha]VTCA-NH2; thioether N-14), the pIC50 is 6.33.

On to `CC(C)C[C@H]1NC(=O)[C@H](CCCN)NC(=O)[C@H](CCC(=O)O)NC(=O)[C@H](Cc2ccc(-c3ccccc3)cc2)NC(=O)[C@H](C(C)C)NC(=O)[C@H](Cc2cccc3ccccc23)NC(=O)[C@H](CC(=O)O)NC(=O)[C@H](Cc2ccc(OCC(=O)O)cc2)NC(=O)[C@H](CN)NC(=O)CSC[C@@H](C(=O)N[C@@H](C)C(N)=O)NC(=O)[C@H]([C@@H](C)O)NC(=O)[C@H](C(C)C)NC(=O)[C@H](CC2CCCCC2)NC(=O)[C@H](CCN)NC1=O` [Compound 2146] ({CH2CO}-[Dap]Y(Carboxymethyl)D[1Nal]V[Bip]E[Orn][dL][Dab][Cha]VTCA-NH2; thioether N-14), for which the pIC50 was 7.97.

As for `CC(C)C[C@H]1NC(=O)[C@H](CCCN)NC(=O)[C@H](CCC(=O)O)NC(=O)[C@H](Cc2ccc(-c3ccccc3)cc2)NC(=O)[C@H](C(C)C)NC(=O)[C@H](Cc2ccc(F)cc2)NC(=O)[C@H](CC(=O)O)NC(=O)[C@H](Cc2ccc(OCC(=O)O)cc2)NC(=O)[C@H](CN)NC(=O)CSC[C@@H](C(=O)N[C@@H](C)C(N)=O)NC(=O)[C@H]([C@@H](C)O)NC(=O)[C@H](C(C)C)NC(=O)[C@H](CC2CCCCC2)NC(=O)[C@H](CCN)NC1=O` [Compound 2147], the negative-log IC50 (pIC50) is 7.92.

`CC(C)C[C@H]1NC(=O)[C@H](CCCN)NC(=O)[C@H](CCC(=O)O)NC(=O)[C@H](Cc2ccc(-c3ccccc3)cc2)NC(=O)[C@H](C(C)C)NC(=O)[C@H](Cc2ccc(F)c(F)c2)NC(=O)[C@H](CC(=O)O)NC(=O)[C@H](Cc2ccc(OCC(=O)O)cc2)NC(=O)[C@H](CN)NC(=O)CSC[C@@H](C(=O)N[C@@H](C)C(N)=O)NC(=O)[C@H]([C@@H](C)O)NC(=O)[C@H](C(C)C)NC(=O)[C@H](CC2CCCCC2)NC(=O)[C@H](CCN)NC1=O` [Compound 2148]: the pIC50 was 7.76.

On to `CC(C)C[C@H]1NC(=O)[C@H](CCCN)NC(=O)[C@H](CCC(=O)O)NC(=O)[C@H](Cc2ccc(-c3ccccc3)cc2)NC(=O)[C@H](C(C)C)NC(=O)[C@H](Cc2cc(F)c(F)c(F)c2)NC(=O)[C@H](CC(=O)O)NC(=O)[C@H](Cc2ccc(OCC(=O)O)cc2)NC(=O)[C@H](CN)NC(=O)CSC[C@@H](C(=O)N[C@@H](C)C(N)=O)NC(=O)[C@H]([C@@H](C)O)NC(=O)[C@H](C(C)C)NC(=O)[C@H](CC2CCCCC2)NC(=O)[C@H](CCN)NC1=O` [Compound 2149], for which the pIC50 is 7.38.

`CC(C)C[C@H]1NC(=O)[C@H](CCCN)NC(=O)[C@H](CCC(=O)O)NC(=O)[C@H](Cc2ccc(-c3ccccc3)cc2)NC(=O)[C@H](C(C)C)NC(=O)[C@H](Cc2ccccc2F)NC(=O)[C@H](CC(=O)O)NC(=O)[C@H](Cc2ccc(OCC(=O)O)cc2)NC(=O)[C@H](CN)NC(=O)CSC[C@@H](C(=O)N[C@@H](C)C(N)=O)NC(=O)[C@H]([C@@H](C)O)NC(=O)[C@H](C(C)C)NC(=O)[C@H](CC2CCCCC2)NC(=O)[C@H](CCN)NC1=O` [Compound 2150]: the pIC50 is 8.12.

On to `Cc1ccccc1C[C@@H]1NC(=O)[C@H](CC(=O)O)NC(=O)[C@H](Cc2ccc(OCC(=O)O)cc2)NC(=O)[C@H](CN)NC(=O)CSC[C@@H](C(=O)N[C@@H](C)C(N)=O)NC(=O)[C@H]([C@@H](C)O)NC(=O)[C@H](C(C)C)NC(=O)[C@H](CC2CCCCC2)NC(=O)[C@H](CCN)NC(=O)[C@@H](CC(C)C)NC(=O)[C@H](CCCN)NC(=O)[C@H](CCC(=O)O)NC(=O)[C@H](Cc2ccc(-c3ccccc3)cc2)NC(=O)[C@H](C(C)C)NC1=O` [Compound 2151], for which the negative logarithm of the IC50 (pIC50) is 7.92.

Consider `CC(C)C[C@H]1NC(=O)[C@H](CCCN)NC(=O)[C@H](CCC(=O)O)NC(=O)[C@H](Cc2ccc(-c3ccccc3)cc2)NC(=O)[C@H](C(C)C)NC(=O)[C@H](Cc2ccc(Cl)c(Cl)c2)NC(=O)[C@H](CC(=O)O)NC(=O)[C@H](Cc2ccc(OCC(=O)O)cc2)NC(=O)[C@H](CN)NC(=O)CSC[C@@H](C(=O)N[C@@H](C)C(N)=O)NC(=O)[C@H]([C@@H](C)O)NC(=O)[C@H](C(C)C)NC(=O)[C@H](CC2CCCCC2)NC(=O)[C@H](CCN)NC1=O` [Compound 2152], for which the pIC50 was 7.95.

With `CC(C)C[C@H]1NC(=O)[C@H](CCCN)NC(=O)[C@H](CCC(=O)O)NC(=O)[C@H](Cc2ccc(-c3ccccc3)cc2)NC(=O)[C@H](C(C)C)NC(=O)[C@H](Cc2cccs2)NC(=O)[C@H](CC(=O)O)NC(=O)[C@H](Cc2ccc(OCC(=O)O)cc2)NC(=O)[C@H](CN)NC(=O)CSC[C@@H](C(=O)N[C@@H](C)C(N)=O)NC(=O)[C@H]([C@@H](C)O)NC(=O)[C@H](C(C)C)NC(=O)[C@H](CC2CCCCC2)NC(=O)[C@H](CCN)NC1=O` [Compound 2153] ({CH2CO}-[Dap]Y(Carboxymethyl)D[2Thi]V[Bip]E[Orn][dL][Dab][Cha]VTCA-NH2; thioether N-14), the pIC50 was 8.00.

Consider `CC(C)C[C@H]1NC(=O)[C@H](CCCN)NC(=O)[C@H](CCC(=O)O)NC(=O)[C@H](Cc2ccc(-c3ccccc3)cc2)NC(=O)[C@H](C(C)C)NC(=O)[C@H](Cc2ccccn2)NC(=O)[C@H](CC(=O)O)NC(=O)[C@H](Cc2ccc(OCC(=O)O)cc2)NC(=O)[C@H](CN)NC(=O)CSC[C@@H](C(=O)N[C@@H](C)C(N)=O)NC(=O)[C@H]([C@@H](C)O)NC(=O)[C@H](C(C)C)NC(=O)[C@H](CC2CCCCC2)NC(=O)[C@H](CCN)NC1=O` [Compound 2154] ({CH2CO}-[Dap]Y(Carboxymethyl)D[2Pal]V[Bip]E[Orn][dL][Dab][Cha]VTCA-NH2; thioether N-14), for which the negative logarithm of the IC50 (pIC50) was 7.55.

For the molecule `CC(C)C[C@H]1NC(=O)[C@H](CCCN)NC(=O)[C@H](CCC(=O)O)NC(=O)[C@H](Cc2ccc(-c3ccccc3)cc2)NC(=O)[C@H](C(C)C)NC(=O)[C@H](CCc2ccccc2)NC(=O)[C@H](CC(=O)O)NC(=O)[C@H](Cc2ccc(OCC(=O)O)cc2)NC(=O)[C@H](CN)NC(=O)CSC[C@@H](C(=O)N[C@@H](C)C(N)=O)NC(=O)[C@H]([C@@H](C)O)NC(=O)[C@H](C(C)C)NC(=O)[C@H](CC2CCCCC2)NC(=O)[C@H](CCN)NC1=O` [Compound 2155], the pIC50 is 7.31.

As to `CC(C)C[C@H]1NC(=O)[C@H](CCCN)NC(=O)[C@H](CCC(=O)O)NC(=O)[C@H](Cc2ccc(-c3ccccc3)cc2)NC(=O)[C@H](C(C)C)NC(=O)[C@H](Cc2cccnc2)NC(=O)[C@H](CC(=O)O)NC(=O)[C@H](Cc2ccc(OCC(=O)O)cc2)NC(=O)[C@H](CN)NC(=O)CSC[C@@H](C(=O)N[C@@H](C)C(N)=O)NC(=O)[C@H]([C@@H](C)O)NC(=O)[C@H](C(C)C)NC(=O)[C@H](CC2CCCCC2)NC(=O)[C@H](CCN)NC1=O` [Compound 2156] ({CH2CO}-[Dap]Y(Carboxymethyl)D[3Pal]V[Bip]E[Orn][dL][Dab][Cha]VTCA-NH2; thioether N-14), the pIC50 was 6.49.
